Assay results reported in paper PMC12143354, “Determining sex differences in aortic valve myofibroblast responses to drug combinations identified using a digital medicine platform” (Science Advances, 2025).
Like-named read-outs stand apart in the source and are kept apart here.

Experiments:
male VICs [1] = experiment: percent αSMA GMI reduction, male VICs on stiff hydrogels; type: cell-based, pig; details: male VICs; for EC1 / EC2: from dose response curves; for Percent αSMA reduction, Average: n = 3-4 gels
Protocol: (§1) Glass-bottom 96-well plates (Cellvis) were placed in an autoclave jar with a scintillation vial containing 100 μl of mercaptopropyltrimethoxysilane (MPTS; Sigma-Aldrich). The autoclave jar was then lightly sealed and placed inside an oven at 60°C for a minimum of 6 hours. The autoclave jar was opened in a chemical fume hood, and the vapor-deposited well plate was stored for up to 2 hours until ready for use. Eight-arm 20-kDa PEG-norbornene (PEG-Nb) was formed as outlined previously ([76]). A 7% (w/v) PEG-Nb hydrogel precursor solution was formed by combining phosphate-buffered saline (PBS), 20-kDa PEG-Nb at a 0.98:1 thiol-to-ene ratio, 5-kDa PEG-dithiol (Jenkem), CRGDS cell binding motif (Bachem), and lithium phenyl-2,4,6-trimethyl-benzoylphosphinate (Thermo Fisher Scientific). An EPMotion 5073l automated liquid handling system (Eppendorf) was used to pipet 7 μl of the hydrogel precursor solution into the center of each well of the vapor-deposited 96-well glass-bottom plate. The well plate with the hydrogel precursor solution was then stamped using a custom 96-well plate stamp, inverted, and cured under ultraviolet light at 10 mW/cm^2 for 3 min to induce gelation. The stamp was carefully removed by hand, and the newly formed gels were sterilized with a solution of 5% isopropyl alcohol (Thermo Fisher Scientific) in PBS for 20 min. Gels were then washed twice with PBS and stored in VIC media composed of Media199 (Life Technologies), 1% fetal bovine serum (FBS, Life Technologies), amphotericin B (1 μg/ml; Thermo Fisher Scientific), penicillin (50 U/ml; Sigma-Aldrich), and streptomycin (50 μg/ml; Sigma-Aldrich). Last, the hydrogels were placed in an incubator at 37°C with 5% carbon dioxide for up to 24 hours until experimental use.
(§2) Media changes were performed every 24 to 48 hours until cells reached ~80% confluency. […] The media solution was then aspirated, and VICs were resuspended with 1 ml of 1% FBS media. VICs were counted with an automated hemocytometer to calculate the volume of cell solution to add to each well to seed at 6400 cells per well (20,000 cells/cm^2) for TCPS and hydrogel experiments. For all experiments, VICs were seeded with 1% FBS media containing the specified drug doses and incubated at 37°C with 5% carbon dioxide with media changes every 48 to 72 hours if needed.
(§3) Drug stock solutions were discarded after two thaw cycles or after 10 months of storage. For all experiments, drug dilutions were calculated and added to VIC media to ensure that total DMSO levels remained below 1% for cytotoxicity and αSMA reduction curve fitting experiments and below 0.3% for drug combination experiments.
(§4) After culture on hydrogels or TCPS, the spent drug-containing media were removed, and VICs were immersed in a 4% paraformaldehyde solution in PBS for 20 min and then permeabilized for 1 hour with 0.1% Triton X-100 (Thermo Fisher Scientific) in PBS. Cells were then blocked with 5% bovine serum albumin in PBS for 1 hour at room temperature or over the weekend at 4°C. […] Last, VICs were washed once with PBS and then stored in PBS at 4°C until imaging. Gel samples were imaged in situ using a Nikon Eclipse Ti2-E and analyzed using an automated MATLAB code to quantify the αSMA gradient mean intensities and caspase-3 intensities normalized to cell mask for each cell. A minimum of 100 cells were used per gel with multiple gels used per condition.
(§5) Curve fitting for VIC percent αSMA reduction and cytotoxicity was performed using GraphPad Prism 10 (GraphPad Software Inc). For each inhibitor, the nonlinear regression tool in Prism was used to estimate the response against the agonist by fitting the top, bottom, EC50/CC50, and hillslope to each dataset. After 2 days of culture, the percent αSMA reduction was calculated using the average αSMA gradient mean intensities of the control relative to the drug condition using Eq. 1 %αSMA reduction=100×(Control−Drug Condition/Control) (1)

male VICs [2] = experiment: percent αSMA GMI reduction by immunofluorescent staining, male VICs on TCPS; type: cell-based, pig; details: for reduction in αSMA GMI, initial screen: male VICs on TCPS, dosing range 10^-7 to 10^3 μM; for Percent αSMA reduction, Average: male VICs, TCPS, single drug at L2 dose, n = 3 wells
Protocol: (§6) VICs were collected by aspirating off spent media, washing with PBS (Sigma-Aldrich) for 1 min, then incubating with 1× trypsin (Life Technologies) for 3 min. Trypsin was neutralized with an equal volume of 15% FBS growth media and centrifuged for 5 min at 0.2g. The media solution was then aspirated, and VICs were resuspended with 1 ml of 1% FBS media. VICs were counted with an automated hemocytometer to calculate the volume of cell solution to add to each well to seed at 6400 cells per well (20,000 cells/cm^2) for TCPS and hydrogel experiments. […] For each inhibitor, the nonlinear regression tool in Prism was used to estimate the response against the agonist by fitting the top, bottom, EC50/CC50, and hillslope to each dataset.

[3] = ref (79) Irosustat, (80) Losartan, cited from earlier work
female VICs [4] = experiment: percent αSMA GMI reduction by immunofluorescent staining, female VICs on TCPS; type: cell-based, pig; details: for reduction in αSMA GMI, initial screen: female VICs on TCPS, dosing range 10^-7 to 10^3 μM; for Percent αSMA reduction, Average: female VICs, TCPS, n = 3 wells
Protocol: as §6

female VICs [5] = experiment: percent αSMA GMI reduction, female VICs on stiff hydrogels; type: cell-based, pig; details: for EC1 / EC2: from dose response curves; for Percent αSMA reduction, Average: n = 3-4 gels
Protocol: as §1, §2, §3, §4, §5

female VICs [6] = experiment: percent αSMA GMI reduction, female VICs on soft hydrogels; type: cell-based, pig; details: n = 3 gels
Excerpt: (§7) Last, we tested the ability of […]-designed combinations to prevent myofibroblast activation in VICs cultured on other substrates beyond stiff hydrogels. […] Six male-optimized combinations were effective in preventing male VIC myofibroblast activation (Fig. 7K). […] Single-drug monotherapies used in the top male and female drug combinations were confirmed to have a minimal effect on male and female VIC αSMA GMI on soft hydrogels (table S14). […] After aspirating off the spent media, VICs were resuspended in 5 ml of fresh 15% FBS media and seeded on T25 Falcon tissue culture-treated flasks (Thermo Fisher Scientific). […] VICs were collected by aspirating off spent media, washing with PBS (Sigma-Aldrich) for 1 min, then incubating with 1× trypsin (Life Technologies) for 3 min. Trypsin was neutralized with an equal volume of 15% FBS growth media and centrifuged for 5 min at 0.2g. The media solution was then aspirated, and VICs were resuspended with 1 ml of 1% FBS media. VICs were counted with an automated hemocytometer to calculate the volume of cell solution to add to each well to seed at 6400 cells per well (20,000 cells/cm^2) for TCPS and hydrogel experiments. […] For each inhibitor, the nonlinear regression tool in Prism was used to estimate the response against the agonist by fitting the top, bottom, EC50/CC50, and hillslope to each dataset.

male VICs [7] = details: for CC25 (percent cytotoxicity): male VICs on stiff gels, n = 3 gels; for CC1 / CC2: male VICs, stiff hydrogels, from dose response curves
Protocol: as §4
(§8) Percent cytotoxicity was determined by designating each cell as alive or dead using caspase-3 intensity normalized to cell mask intensity, which was thresholded using a positive and negative control for cell death [10 nM staurosporine (Cell Signaling Technologies) or 1% FBS media]. The bottom value for every curve fit was set to 0, and the top value was constrained to a maximum of 100 to indicate the maximum possible effect of the drug. […] Absolute EC and CC values for % αSMA reduction and percent cytotoxicity were quantified using the top, bottom, EC50/CC50, and hillslope values estimated from the curve fits generated in GraphPad Prism (GraphPad Software Inc).

female VICs [8] = details: for CC25 (percent cytotoxicity): female VICs on stiff gels, n = 3 gels; for CC1 / CC2: female VICs, stiff hydrogels, from dose response curves
Protocol: as §4, §8

male VICs [9] = experiment: percent αSMA GMI reduction, male VICs on soft hydrogels; type: cell-based, pig; details: single drug at L2 dose, n = 3 gels
Excerpt: as §7

Structure (SMILES)	EC1 (male VICs [1]) [µM]	EC2 (male VICs [1]) [µM]	Percent αSMA reduction, Average (male VICs [1]; single drug at level 1 dose) [%]	Percent αSMA reduction, Average (male VICs [1]; single drug at level 2 dose) [%]	reduction in αSMA GMI, initial screen (male VICs [2]) [%]	Percent αSMA reduction, Average (male VICs [2]) [%]	reduction in αSMA GMI, initial screen (female VICs [4]) [%]	EC1 (female VICs [5]) [µM]	EC2 (female VICs [5]) [µM]	Percent αSMA reduction, Average (female VICs [5]; single drug at level 1 dose) [%]	Percent αSMA reduction, Average (female VICs [5]; single drug at level 2 dose) [%]	CC25 (percent cytotoxicity) (male VICs [7]) [µM]	CC1 (male VICs [7]) [µM]	CC2 (male VICs [7]) [µM]	CC25 (percent cytotoxicity) (female VICs [8]) [µM]	CC1 (female VICs [8]) [µM]	CC2 (female VICs [8]) [µM]	Percent αSMA reduction, Average (male VICs [9]) [%]	Percent αSMA reduction, Average (female VICs [4]; single drug at L2 dose) [%]	Percent αSMA reduction, Average (female VICs [6]; single drug at L2 dose) [%]	further results
NS(=O)(=O)Oc1ccc2c3c(c(=O)oc2c1)CCCCC3 [Irosustat]	92.6	106.3	0.84	0.67	> 25	-1.15	> 25	74.4	84.7	9.62	-0.55	125	48.5	58.7	109	50.2	57.9	-10.38			Cmax ([3]; read-out: 5% Cmax, 5% of Cmax from FDA documents and clinical studies): 10.6 nM; Cmax ([3]; read-out: 10% Cmax, 10% of Cmax from FDA documents and clinical studies): 21.2 nM; Percent αSMA reduction, Average (female VICs [4]; single drug at L1 dose): 1.88%; Percent αSMA reduction, Average (female VICs [6]; single drug at L1 dose): 4.80%
O=C(COCC(=O)Nc1ccc(Cl)cc1C(=O)O)Nc1cccc(-c2ccoc2)c1 [TM5441]	4.96	9.3	-1.46	2.18	> 25	18.36	> 25	24.8	33.6	1.52	-7.64	51.3	18.9	21.9	191	19.7	31.1	13.16	8.37	17.16	
Cc1cncc2cccc(S(=O)(=O)N3CCCNC[C@@H]3C)c12 [Combination H1152]	1.96	2.82	-5.03	0.66	> 25	-0.09	> 25	0.0765	0.198	8.04	12.39	6.27	0.162	0.28	72.6	0.26	0.806	-5.04	2.30	3.37	
